The target in experiment [1] is T1, PDC-109 (Bos taurus, UniProt P02784).
T1 construct: native, purified from bovine seminal plasma (Sephadex G-50 gel filtration, DEAE Sephadex A-25); mature 109 residues, two FnII domains, O-glycosylated; polydisperse oligomers
T1 sequence (P02784 26-134): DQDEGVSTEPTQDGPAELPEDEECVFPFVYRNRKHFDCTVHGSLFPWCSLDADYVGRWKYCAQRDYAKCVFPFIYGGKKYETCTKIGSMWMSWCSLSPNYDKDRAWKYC
Description: fluorescence titration, Scatchard analysis. As to conditions: read-out: K a (converted). Type of experiment: binding.

The target in experiment [2] is T1, PDC-109. Description: near-UV CD. Conditions: sonicated unilamellar vesicles, 0.1 mM lipid, pH 7.4, room temperature. It is filed as binding.
The target in experiment [3] is T1, PDC-109. Description: ANS fluorescence in presence of PrC. As to conditions: 10 mM PrC, 50 µM ANS, 0.05 mg/mL protein; lowers ANS binding.
Experiment [4] deals with T1, PDC-109. The experiment can be described thus: isothermal titration calorimetry, sequential binding model. Conditions: read-out: Ka × 10^3 (M^-1) (converted). The text has this: isothermal titration calorimetry, sequential binding model on PDC-109
(Isothermal titration calorimetry measures the heat released or taken up as one component is titrated into another.)

Experimental findings from PMC3050878, “Correlation of Membrane Binding and Hydrophobicity to the Chaperone-Like Activity of PDC-109, the Major Protein of Bovine Seminal Plasma” (PLoS ONE, 2011) are described below.

For `O=S(=O)(O)c1cccc2cccc(Nc3ccccc3)c12` [ANS, 8-anilinonaphthalene sulphonic acid], the Kd in experiment [1] was 32.4 µM. As for `CCCCCCCCCCCCCC(=O)OC[C@H](COP(=O)(O)OCC(O)CO)OC(=O)CCCCCCCCCCCCC` (some centres unmarked) [DMPG], in experiment [2], the “near-UV CD” value is listed as “the protein tertiary structure is altered upon phospholipid binding”. Take `C[N+](C)(C)CCOP(=O)([O-])O` [PrC]: the “ANS fluorescence in presence of PrC” value in experiment [3] is listed as “PrC binding leads to a significant decrease in the surface hydrophobicity of the protein”. Consider `CCCCCCCCCCCCCC(=O)OC[C@H](COP(=O)([O-])OCC[N+](C)(C)C)OC(=O)CCCCCCCCCCCCC` [DMPC], for which the “near-UV CD” value in experiment [2] is on record as “the protein tertiary structure is altered upon phospholipid binding”. Consider `O=S(=O)(O)c1cccc2c(-c3ccc(Nc4ccccc4)c4c(S(=O)(=O)O)cccc34)ccc(Nc3ccccc3)c12` [bisANS, 4,4′-Dianilino-1,1′-binaphthyl-5,5′-disulphonic acid], for which the Kd in experiment [4] was 389 µM.
